{"source": "patent US7230139B2", "about": "“Diterpenoid compounds, compositions thereof and their use as anti-cancer or anti-fungal agents” (priority 2004, dated 2007)", "key": {"[1]": {"experiment": "Solubility by filtration and LC/MS", "type": "physicochemical", "conditions": "in water (printed for Compound 74)", "experimental": "To determine whether a compound is soluble in a solution, the solution was filtered on […] polytetrafluoroethylene filters (Whatman Inc. Clifton, N.J., USA) and the compound concentration in the filtrate was measured by LC/MS and compared to the expected concentration. If the concentration of the compound in the filtrate was equal +/−15% to the expected concentration, the compound was judged to be soluble in the solution.\nThe detection of Compound 74 or Compound 50 by LC/MS was carried out using the HPLC system that consisted of a Waters Alliance quaternary gradient HPLC pump (Waters, Milford, Mass., USA) and a ZQ2000 single quadrupole mass spectrometer (Waters, Milford, Mass., USA). The column used was XTerra MS C18: 50×2.1 mm, […] column at 20° C. Samples were injected and separated under the following conditions: The mobile phase “A” consisted of 5 mM ammonium formate, 0.1% formic acid in water and mobile phase “B” consisted of 5 mM ammonium formate, 0.1% formic acid in methanol. A linear gradient was applied as follows: 0 to 1 min, 94% “A” and 6% “B”; 1 to 4 min, 6% to 100% “B”; 4 to 8 min 100% “B”; 8 to 9 min, 100% “B” to 6% “B”; 9 to 12 min, 94% “A” and 6% “B”. […] Compounds were detected at m/z equal to their respective molecular weight plus 1."}, "[2]": {"test_system": "Candida albicans strain ATCC 10231", "experiment": "Fungus growth inhibition (OD600)", "type": "cell-based", "conditions": "dilution series, YEP glucose, 30° C.; dose-dependent", "experimental": "Fungus cells were first cultured overnight in 10 mL of YEP glucose-containing medium at 30° C. The following day, 5 μL of the overnight culture (5–6×10^3 cells) was added to 100 μL of YEP glucose-containing medium in a 96-well microtitre plate. To these cultures a dilution series of Compound 50 was added. Compound 50 was prepared as a stock solution in 100% dimethyl sulfoxide (DMSO) at a concentration of 10 mM. Serial dilutions were prepared in distilled water. The final DMSO concentration in each well was 0.5%. Fungus cells were grown at 30° C. and cell growth was monitored by reading the OD600 (optical density at 600 nm) with a Tecan Ultra plate reader (TECAN U.S. Inc. Research Triangle Park, N.C., USA). […] Accordingly, Compound 50, an illustrative Diterpenoid Compound, is useful for inhibiting the growth of a fungus or treating a fungal infection."}, "[3]": {"test_system": "SW480 human colon carcinoma cancer cells", "experiment": "SW480 colon carcinoma xenograft in SCID mice", "type": "in vivo, CB17 SCID/SCID female mice", "conditions": "i.v. 10 mg/kg once a day for five days", "experimental": "The resultant mice are a model for a human having colon carcinoma cancer.\nThe SW480 human colon carcinoma cancer cells were maintained in RPMI supplemented with 10% inactivated fetal bovine serum and 1% penicillin-streptomycin-L-Glutamine, under 5% CO2 at 37° C., and passaged twice a week. The cells were grown at a confluency lower than 70% and then collected with Trypsin (Bio-Whittaker, Md., USA). The cells were then centrifuged and washed twice using phosphate buffered saline solution (PBS) and resuspended in PBS at 1×10^6 cells per 100 μl. Viability was examined by staining with Trypan Blue and only flasks with cell viability of greater than 95% were used for in vivo studies.\nSW480 cells were transplanted subcutaneously into the flank of female CB 17 SCID/SCID mice. Each mouse was inoculated with a suspension of 1×10^6 tumor cells per 100 μL on day zero. The following five treatment groups of ten mice each were used: (a) a negative control group treated with intravenous (i.v.) injection of vehicle, (b) a group treated with i.v. injection of a Compound 50, (c) a group treated with i.v. injection of a Compound 50a, (d) a group treated with i.v. injection of Compound 50b, (e) a group treated with i.v. injection of Compound 74a.\nTreatment started on day twelve after SW480 cells transplantation and Compounds 50, 50a, 50b and 74a were administered i.v. once daily for five consecutive days at a dose of 10, 10, 10 and 50 mg/kg, respectively. Compound 50, 50a and 50b were prepared as a working solution of 1.5 mg/mL in a vehicle solution of 20% Cremaphor EL (Sigma, St. Louis, Miss., USA), and 10% Ethanol. Compound 74a was prepared as a working solution of 5 mg/mL in a vehicle solution of 5% Dextrose (Abbot Laboratories, QC, Canada). The negative control groups were treated with vehicle solution of 20% Cremaphor EL and 10% Ethanol alone.\nThe mice were weighed and the tumors measured on day 12 and every 2 to 3 days after treatment commenced. Observations continued for 23 days after initial tumor implantation. The changes in body weight and in the calculated tumor volume were plotted (FIGS. 9 and 10). Statistical analysis was performed using GraphPad Prism (GraphPad Software Inc., San Diego, Calif.). Two-way ANOVA was used to determine how the treatment affected tumor growth over time. Following the two-way ANOVA, post-tests were performed using the Benferroni method to determine the statistical difference between the mean tumor-size of the two groups being compared on every day that the tumors were measured."}}, "data": [{"smiles": "COc1ccc2c(c1)C1(C)C=CC(=O)C(C)(C)C1=C(O)C2=O", "note": "(racemic) [Compound 50]", "values": [{"measurement": "solubility", "setting": "[1]", "result": "< 100", "unit": "µg/mL"}, {"measurement": "Growth of Candida albicans", "setting": "[2]", "result": "significantly inhibited growth"}, {"measurement": "Tumor growth compared to vehicle", "setting": "[3]", "result": "significant reduction (p<0.001)"}]}]}
